Source: ChEMBL document CHEMBL5604066, “ASAP - DENV-4 NS2B-NS3 protease fluorescence dose response” (2024)

The compounds below were run against T1, NS3 protease (dengue virus type 4, UniProt A0A0K0TQ36) (assay: Functional biochemical assay to identify treatments for viral infectious disease that targets Dengue virus type 4 NS2B-NS3 protease. Utilizing a direct enzyme activity measurement method, reading the fluorescence intensity is used to characterize the relative potency of inhibitors as IC50.).
T1 sequence (A0A0K0TQ36 whole entry): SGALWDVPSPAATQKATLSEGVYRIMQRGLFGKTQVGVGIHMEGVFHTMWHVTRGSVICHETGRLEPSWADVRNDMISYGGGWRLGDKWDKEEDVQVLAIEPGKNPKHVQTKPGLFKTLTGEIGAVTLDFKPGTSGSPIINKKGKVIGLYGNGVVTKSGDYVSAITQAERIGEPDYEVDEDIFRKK
Design: species or system Philippines/H241/1956

Q: With `N#Cc1ccc(-c2nc3c(C(=O)Nc4ccc5c(c4)CNC5)cc(F)cc3[nH]2)cc1` as the compound, how does the IC50 read?
A: 1.92 µM

Q: How did the IC50 turn out when `COc1cccc(-c2nc3c(C(=O)Nc4ccc5c(c4)CNC5)cc(F)cc3[nH]2)c1` was run?
A: 5.32 µM

Q: Which IC50 does the source give for `O=C(Nc1ccc2c(c1)CNC2)c1cc(F)cc2[nH]c(-c3cccc(F)c3)nc12` here?
A: 3.73 µM

Q: Which IC50 does the source give for `Cc1cccc(-c2nc3c(C(=O)Nc4ccc5c(c4)CNC5)cc(F)cc3[nH]2)c1` here?
A: 5.9 µM

Q: With `Cc1ccccc1-c1nc2c(C(=O)Nc3ccc4c(c3)CNC4)cc(F)cc2[nH]1` as the compound, how does the IC50 read?
A: 3.24 µM

Q: How did the IC50 turn out when `NCc1ccc(-c2csc3cc(C(=O)Nc4ccc5c(c4)CNC5)ccc23)cc1` was run?
A: 53.2 µM

Q: `NCc1csc2cc(C(=O)Nc3ccc4c(c3)CNC4)ccc12` was tested. Which IC50 did it give?
A: 11.8 µM

Q: `O=C(Nc1ccc2c(c1)CNC2)c1cccc2c(C3CNC3)n[nH]c12` was tested. Which IC50 did it give?
A: 32.2 µM
